Experimental data as given in paper PMC11602654 (The Journal of General Physiology, 2024).

Experiments:
[1] = target: T1, β3(Q64R+G127T) homomeric GABAA receptor (Homo sapiens, UniProt P28472, G152T/Q89R); assay: two-electrode voltage clamp, concentration-response; type: cell-based
T1 sequence (P28472 26-473 Q89R/G152T): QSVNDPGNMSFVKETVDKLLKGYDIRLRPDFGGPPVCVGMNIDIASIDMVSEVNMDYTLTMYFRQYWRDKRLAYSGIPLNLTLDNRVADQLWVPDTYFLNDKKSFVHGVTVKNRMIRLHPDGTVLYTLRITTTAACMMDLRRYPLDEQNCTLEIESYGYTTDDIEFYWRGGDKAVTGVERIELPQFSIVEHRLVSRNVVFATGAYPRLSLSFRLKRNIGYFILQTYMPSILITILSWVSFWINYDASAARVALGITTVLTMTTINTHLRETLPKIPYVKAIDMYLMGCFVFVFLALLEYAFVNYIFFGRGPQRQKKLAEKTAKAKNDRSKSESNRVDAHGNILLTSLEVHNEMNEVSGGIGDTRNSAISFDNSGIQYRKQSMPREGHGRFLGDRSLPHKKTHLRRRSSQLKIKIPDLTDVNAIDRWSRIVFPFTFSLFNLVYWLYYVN

[2] = target: α1β2γ2L GABAA receptor (Rattus norvegicus, UniProt P62813+P63138); assay: as above; type: cell-based

Compound | EC50 [1] | EC50 [2]
NCCc1c[nH]cn1 [histamine] | 9 ± 0.5 mM | –
O=S(=O)(O)C1CCNCC1 [P4S, piperidine-4-sulfonic acid] | – | 0.033 ± 0.012 mM
